{
  "source": "patent US5418218A",
  "about": "“Histidyl-proline diketopiperazine (cyclo his-pro) a cns-active pharmacologic agent” (The University of Maryland at Baltimore, priority 1992, dated 1995)",
  "key": {"[1]": {"assay": "Weight loss activity of cyclic dipeptides", "conditions": "in vivo", "source_text": "As to the active ingredient, while the effect as to weight loss appears to be stereospecific, it is contemplated that alterations can be made to the compound to enhance the activities thereof contemplated to fall within the scope of the instant invention."}, "[2]": {"conditions": "cited from earlier work"}, "[3]": {"assay": "Intraperitoneal cyclo (His-Pro), inhibition of appetite in animals receiving liquid diets", "format": "in vivo", "conditions": "intraperitoneally, 20 mg/kg/day for 24 days"}, "[4]": {"assay": "Oral administration to rats, appearance in plasma", "conditions": "administered orally to rats"}, "[5]": {"assay": "Passage of the blood-brain barrier", "format": "in vivo", "conditions": "non-CNS administration", "protocol": "Thus, it was determined in the development of the instant invention that cyclo (His-Pro), unlike the vast majority of biologics that are susceptible to degradation in the gastrointestinal tract, can be administered by those routes normally employed for drug administration, such as intramuscularly and intravenously, but also that cyclo (His-Pro) can be administered orally. […] Although not an absolute barrier of the passage of compounds into the brain, many compounds cross very slowly if at all to any effective extent."}, "[6]": {"assay": "Stability in vivo and in drinking water", "source_text": "While it is known that the pyroglutamic acid residue often confers stability on a peptide carrying the same at a terminus, such as TRH, the precursor of cyclo (His-Pro), the pyroglutamic acid residue is not present in cyclo His-Pro.\nThe carrier(s) must be \"acceptable\" in the sense of being compatible with other ingredients of the formulation and not deleterious to the recipient thereof. […] Formulations suitable for administration conveniently comprise sterile aqueous solutions of the active chemical, which may be conveniently prepared by mixing the active chemical with water, and after rendering said solution sterile it may be presented in sealed containers."}, "[7]": {"assay": "Intracerebroventricular administration / lateral ventricle infusion, appetite and weight gain", "format": "in vivo, rodents", "conditions": "administered IVT acutely"}, "[8]": {"test_system": "pancreatic or intestinal enzymes", "assay": "Resistance to proteolytic digestion"}, "[9]": {"assay": "Oral cyclo (His-Pro) in drinking water, weight gain in rodents"}, "[10]": {"conditions": "oral in drinking water, versus control animals, P<0.02"}},
  "data": [
    {"smiles": "O=C1[C@@H]2CCCN2C(=O)[C@@H]2CCCN12", "note": "[cyclo (Pro-Pro)]", "values": [
      {"measurement": "weight loss activity", "setting": "[1]", "result": "did not provide weight loss activity"}
    ]},
    {"smiles": "O=C1N[C@@H](Cc2cnc[nH]2)C(=O)N2CCC[C@@H]12", "note": "[cyclo (His-Pro), L-histidyl-L-proline diketopiperazine]", "values": [
      {"measurement": "duration of appetite reduction", "setting": "[2]; after intracerebroventricular administration to rodents", "result": "≤ 12", "unit": "h"},
      {"measurement": "duration of inhibition of weight gain", "setting": "[2]; infused into the lateral ventricle", "result": 2, "unit": "weeks"},
      {"measurement": "inhibition of appetite", "setting": "[3]", "result": "can induce inhibition of appetite"},
      {"measurement": "form appearing in plasma", "setting": "[4]", "result": "completely unaltered biochemically"},
      {"measurement": "blood-brain barrier passage", "setting": "[5]", "result": "crosses the blood-brain barrier to achieve effective concentrations in a short period of time"},
      {"measurement": "effectiveness after addition to water", "setting": "[6]; added to water, such as drinking water from the tap", "result": "retain effectiveness"},
      {"measurement": "enzymatic degradation in vivo", "setting": "[6]; in vivo", "result": "resistant to enzymatic degradation in vivo"},
      {"measurement": "half-life", "setting": "[6]; in vivo", "result": "long half-life"},
      {"measurement": "duration of action", "setting": "[7]", "result": "about 12 hours"},
      {"measurement": "resistance to proteolytic digestion", "setting": "[8]", "result": "uniquely resistant to proteolytic digestion"},
      {"measurement": "cause of weight loss (satiety versus illness)", "setting": "[9]; experimental studies", "result": "due to induction of satiety, not of nausea, vomiting or illness"},
      {"measurement": "mean body weight reached by experimental animals", "setting": "[9]; oral in drinking water, 1 or 2 mg/kg/day for 14 to 18 days, controls gained from a mean of 248 to 396 gms", "result": 384, "unit": "gms"},
      {"measurement": "inhibition of weight gain", "setting": "[9]; [10]", "result": 12, "unit": "grams"},
      {"measurement": "inhibition of weight gain (minus %)", "setting": "[9]; [10]", "result": 8.1, "unit": "%"}
    ]},
    {"smiles": "O=C(O)CCC1NC(=O)C(Cc2ccccc2)NC1=O", "note": "(stereo not shown) [cyclo (Glu-Phe)]", "values": [
      {"measurement": "weight loss activity", "setting": "[1]", "result": "did not provide weight loss activity"}
    ]}
  ]
}
